Experimental data published in BindingDB's records for doi:10.1021/jm970519e (Smithkline Beecham Pharmaceuticals, 1998).

Key:
[1] = target: 5-hydroxytryptamine receptor 2A (Homo sapiens, UniProt P28223)
[2] = target: 5-hydroxytryptamine receptor 6 (Homo sapiens, UniProt P50406)
[3] = target: 5-hydroxytryptamine receptor 1E (Homo sapiens, UniProt P28566)
[4] = target: T1, 5-hydroxytryptamine receptor 2C (Homo sapiens, UniProt P28335)
T1 sequence (P28335 whole entry): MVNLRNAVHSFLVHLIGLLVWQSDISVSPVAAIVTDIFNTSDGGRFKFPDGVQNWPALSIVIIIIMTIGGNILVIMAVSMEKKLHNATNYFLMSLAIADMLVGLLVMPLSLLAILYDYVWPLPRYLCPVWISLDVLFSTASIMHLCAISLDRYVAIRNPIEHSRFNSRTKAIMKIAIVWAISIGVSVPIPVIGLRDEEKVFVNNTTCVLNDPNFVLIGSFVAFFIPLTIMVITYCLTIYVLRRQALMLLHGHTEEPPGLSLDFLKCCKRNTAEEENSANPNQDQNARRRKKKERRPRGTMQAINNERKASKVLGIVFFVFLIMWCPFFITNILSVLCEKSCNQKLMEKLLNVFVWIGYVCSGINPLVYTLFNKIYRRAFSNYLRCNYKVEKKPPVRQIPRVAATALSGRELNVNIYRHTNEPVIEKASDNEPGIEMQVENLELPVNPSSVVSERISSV

[5] = target: T2, Alpha-1B adrenergic receptor (Homo sapiens, UniProt P35368)
T2 sequence (P35368 whole entry): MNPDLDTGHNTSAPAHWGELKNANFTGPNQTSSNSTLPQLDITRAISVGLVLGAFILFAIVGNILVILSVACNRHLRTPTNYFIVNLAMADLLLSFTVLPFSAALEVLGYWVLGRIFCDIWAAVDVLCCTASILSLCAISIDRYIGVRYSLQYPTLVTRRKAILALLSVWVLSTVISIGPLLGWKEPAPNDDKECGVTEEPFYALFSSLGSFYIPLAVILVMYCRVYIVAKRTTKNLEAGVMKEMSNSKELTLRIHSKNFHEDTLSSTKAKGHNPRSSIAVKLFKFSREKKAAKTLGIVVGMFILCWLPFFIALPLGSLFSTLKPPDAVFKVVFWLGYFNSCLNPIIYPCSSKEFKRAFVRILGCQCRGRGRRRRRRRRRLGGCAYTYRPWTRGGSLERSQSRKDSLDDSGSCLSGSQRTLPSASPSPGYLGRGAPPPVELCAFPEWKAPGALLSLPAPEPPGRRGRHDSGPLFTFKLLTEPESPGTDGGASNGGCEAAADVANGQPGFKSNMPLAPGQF

Measured: Ki

5-hydroxytryptamine receptor 1E, sequence (P28566 whole entry): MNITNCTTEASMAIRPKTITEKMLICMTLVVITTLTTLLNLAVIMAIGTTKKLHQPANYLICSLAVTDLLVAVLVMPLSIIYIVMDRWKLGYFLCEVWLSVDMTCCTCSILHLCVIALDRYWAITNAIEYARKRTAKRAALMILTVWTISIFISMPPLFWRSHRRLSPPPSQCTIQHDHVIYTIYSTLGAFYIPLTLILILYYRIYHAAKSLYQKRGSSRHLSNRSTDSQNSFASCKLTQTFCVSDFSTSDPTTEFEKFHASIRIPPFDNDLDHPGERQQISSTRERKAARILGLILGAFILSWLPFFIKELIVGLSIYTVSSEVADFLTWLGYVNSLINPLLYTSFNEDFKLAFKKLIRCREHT
5-hydroxytryptamine receptor 6, sequence (P50406 whole entry): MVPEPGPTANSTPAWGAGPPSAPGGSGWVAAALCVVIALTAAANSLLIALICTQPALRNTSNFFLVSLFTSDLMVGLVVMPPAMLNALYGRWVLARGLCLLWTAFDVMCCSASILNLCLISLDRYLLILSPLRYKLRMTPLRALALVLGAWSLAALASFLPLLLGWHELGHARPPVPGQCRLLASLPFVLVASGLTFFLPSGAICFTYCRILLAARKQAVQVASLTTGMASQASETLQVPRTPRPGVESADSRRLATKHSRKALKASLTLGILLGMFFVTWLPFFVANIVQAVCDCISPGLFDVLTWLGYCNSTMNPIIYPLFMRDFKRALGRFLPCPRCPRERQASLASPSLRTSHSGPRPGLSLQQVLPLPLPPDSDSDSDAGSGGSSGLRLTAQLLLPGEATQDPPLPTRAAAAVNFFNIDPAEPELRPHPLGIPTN
5-hydroxytryptamine receptor 2A, sequence (P28223 whole entry): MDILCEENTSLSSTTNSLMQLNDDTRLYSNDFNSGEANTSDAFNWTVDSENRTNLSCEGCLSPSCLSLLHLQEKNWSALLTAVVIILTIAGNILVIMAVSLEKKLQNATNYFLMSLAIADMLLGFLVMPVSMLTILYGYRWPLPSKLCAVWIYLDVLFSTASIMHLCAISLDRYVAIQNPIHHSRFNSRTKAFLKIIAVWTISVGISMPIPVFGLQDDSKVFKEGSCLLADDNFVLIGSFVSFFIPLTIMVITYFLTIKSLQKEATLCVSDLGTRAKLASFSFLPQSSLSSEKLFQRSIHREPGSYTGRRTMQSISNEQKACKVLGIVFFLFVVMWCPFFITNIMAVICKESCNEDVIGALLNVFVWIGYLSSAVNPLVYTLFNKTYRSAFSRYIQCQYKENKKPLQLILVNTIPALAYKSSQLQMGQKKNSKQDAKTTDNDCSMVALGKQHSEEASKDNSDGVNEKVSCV

Cc1cccc(S(=O)(=O)N(C)[C@H](C)CCN2CCC(C)CC2)c1 [SB-258719]
> 10 µM: [1] | [2] | [3] | [4] | [5]
